From ChEMBL document CHEMBL3784944, “N-Indolylglycosides bearing modifications at the glucose C6-position as sodium-dependent glucose co-transporter 2 inhibitors” (Bioorg Med Chem, 2016)
Active and inactive are the calls of the source. The rule behind the calls is not given here.

Tests used:
[1] = target: T1, Sodium/glucose cotransporter 2 (Homo sapiens, UniProt P31639); assay: Inhibition of human SGLT2 expressed in CHO-K1 cells assessed as reduction in [14C]AMG uptake after 120 mins by scintillation counting method; assay type: cell-based
T1 sequence (P31639 whole entry): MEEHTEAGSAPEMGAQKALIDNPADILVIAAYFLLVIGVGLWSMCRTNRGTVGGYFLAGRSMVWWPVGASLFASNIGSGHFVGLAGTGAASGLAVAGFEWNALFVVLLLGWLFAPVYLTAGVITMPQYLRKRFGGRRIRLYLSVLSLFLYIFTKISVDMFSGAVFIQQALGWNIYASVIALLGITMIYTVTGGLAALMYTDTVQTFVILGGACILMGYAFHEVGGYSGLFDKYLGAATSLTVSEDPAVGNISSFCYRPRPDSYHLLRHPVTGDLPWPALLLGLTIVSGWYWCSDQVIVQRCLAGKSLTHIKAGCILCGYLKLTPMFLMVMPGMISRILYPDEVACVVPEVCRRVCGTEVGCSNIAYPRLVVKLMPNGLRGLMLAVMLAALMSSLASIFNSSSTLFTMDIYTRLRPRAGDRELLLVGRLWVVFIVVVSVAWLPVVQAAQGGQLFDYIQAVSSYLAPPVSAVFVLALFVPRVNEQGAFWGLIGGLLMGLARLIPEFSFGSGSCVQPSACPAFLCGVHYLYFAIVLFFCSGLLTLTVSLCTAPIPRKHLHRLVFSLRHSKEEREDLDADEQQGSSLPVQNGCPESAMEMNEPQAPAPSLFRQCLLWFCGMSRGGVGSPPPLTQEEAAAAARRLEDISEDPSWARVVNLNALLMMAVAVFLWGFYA

CHO-K1 = assay: Selectivity ratio of EC50 for human SGLT1 expressed in CHO-K1 cells to EC50 for human SGLT2 expressed in CHO-K1 cells; assay type: cell-based
Rattus norvegicus [2] = assay: Induction of glucosuria in Sprague-Dawley rat assessed as increase in glucose excretion per 200 g body weight at 50 mg/kg, administered as single dose via oral gavage after 24 hrs by oral glucose tolerance test (reference value: 0.23 mg); assay type: functional
Rattus norvegicus [3] = assay: Effect on glucose AUC in Sprague-Dawley rat at 50 mg/kg, po administered as single dose via oral gavage after 0.5 to 1 hr by oral glucose tolerance test; assay type: functional, organism-based
[4] = AUC (0 to infinity) in Sprague-Dawley rat at 1.1 mg/kg, po measured at 15 mins to 24 hrs post dose by LC-MS/MS analysis; assay type: ADME, organism-based; design: dose 1.1 mg/kg, time infinity, route oral; conditions: in vivo
[5] = AUC (0 to infinity) in Sprague-Dawley rat at 1.1 mg/kg, iv administered via bolus injection measured at 2 to 5 mins post dose by LC-MS/MS analysis; assay type: ADME, organism-based; design: dose 1.1 mg/kg, route intravenous, time infinity; conditions: in vivo
[6] = Oral bioavailability in Sprague-Dawley rat at 1.1 mg/kg measured at 15 mins to 24 hrs after drug challenge by LC-MS/MS analysis; assay type: ADME, organism-based; conditions: in vivo
[7] = Half life in Sprague-Dawley rat at 1.1 mg/kg, po by LC-MS/MS analysis; assay type: ADME, organism-based; conditions: in vivo
[8] = Volume of distribution at steady state in Sprague-Dawley rat at 1.1 mg/kg, iv administered via bolus injection measured at 2 to 5 mins post dose by LC-MS/MS analysis; assay type: ADME, organism-based; conditions: in vivo, read-out: Vdss
[9] = Half life in Sprague-Dawley rat at 1.1 mg/kg, iv administered via bolus injection by LC-MS/MS analysis; assay type: ADME, organism-based; conditions: in vivo
[10] = Cmax in Sprague-Dawley rat at 1.1 mg/kg, po measured at 15 mins to 24 hrs post dose by LC-MS/MS analysis; assay type: ADME, organism-based; design: dose 1.1 mg/kg, route oral; conditions: in vivo
Rattus norvegicus [11] = assay: Reduction of blood glucose level in Sprague-Dawley rat at 50 mg/kg, po administered as single dose via oral gavage after 0.5 to 1 hr by oral glucose tolerance test; assay type: functional, organism-based
[12] = Clearance in Sprague-Dawley rat at 1.1 mg/kg, iv administered via bolus injection measured at 2 to 5 mins post dose by LC-MS/MS analysis; assay type: ADME, organism-based; conditions: in vivo
[13] = Tmax in Sprague-Dawley rat at 1.1 mg/kg, po measured at 15 mins to 24 hrs post dose by LC-MS/MS analysis; assay type: ADME, organism-based; conditions: in vivo
Rattus norvegicus [14] = assay: Induction of glucosuria in Sprague-Dawley rat assessed as increase in glucose excretion at 50 mg/kg administered as single dose via oral gavage after 24 hrs by oral glucose tolerance test; assay type: functional, organism-based

EC50 [1] [nM]	SMILES	also measured
3440	O=C(O)CC(=O)NC[C@H]1O[C@@H](n2cc(Cc3ccc(C4CC4)cc3)c3c(Cl)cccc32)[C@H](O)[C@@H](O)[C@@H]1O	
151	O=C(CCBr)NC[C@H]1O[C@@H](n2cc(Cc3ccc(C4CC4)cc3)c3c(Cl)cccc32)[C@H](O)[C@@H](O)[C@@H]1O	
598	O=C(NCCCl)NC[C@H]1O[C@@H](n2cc(Cc3ccc(C4CC4)cc3)c3c(Cl)cccc32)[C@H](O)[C@@H](O)[C@@H]1O	
160	O=C(CCCl)NC[C@H]1O[C@@H](n2cc(Cc3ccc(C4CC4)cc3)c3c(Cl)cccc32)[C@H](O)[C@@H](O)[C@@H]1O	
42	CC(=O)NC[C@H]1O[C@@H](n2cc(Cc3ccc(C4CC4)cc3)c3c(Cl)cccc32)[C@H](O)[C@@H](O)[C@@H]1O	Activity (Rattus norvegicus [2]): 101 mg; Activity (Rattus norvegicus [3]): inactive; AUC(0-inf) [4]: 99 ng·h/mL; AUC(0-inf) [5]: 996 ng·h/mL; bioavailability [6]: 10%; half-life [7]: 2.5 h; Vd [8]: 2.7 L/kg; half-life [9]: 3.2 h; Cmax [10]: 25.2 ng/mL; Activity (Rattus norvegicus [11]): Active; clearance [12]: 18.8 mL/min/kg; Tmax [13]: 1.2 h
649	CC(C)C(=O)NC[C@H]1O[C@@H](n2cc(Cc3ccc(C4CC4)cc3)c3c(Cl)cccc32)[C@H](O)[C@@H](O)[C@@H]1O	
2590	O=C(NC[C@H]1O[C@@H](n2cc(Cc3ccc(C4CC4)cc3)c3c(Cl)cccc32)[C@H](O)[C@@H](O)[C@@H]1O)c1ccc(CCl)cc1	
113	O=C(CCl)NC[C@H]1O[C@@H](n2cc(Cc3ccc(C4CC4)cc3)c3c(Cl)cccc32)[C@H](O)[C@@H](O)[C@@H]1O	
315	CNC(=S)NC[C@H]1O[C@@H](n2cc(Cc3ccc(C4CC4)cc3)c3c(Cl)cccc32)[C@H](O)[C@@H](O)[C@@H]1O	
387	O=C(NC[C@H]1O[C@@H](n2cc(Cc3ccc(C4CC4)cc3)c3c(Cl)cccc32)[C@H](O)[C@@H](O)[C@@H]1O)c1ccno1	
2370	COc1ccc(C(=O)NC[C@H]2O[C@@H](n3cc(Cc4ccc(C5CC5)cc4)c4c(Cl)cccc43)[C@H](O)[C@@H](O)[C@@H]2O)cc1	
499	O=C(Cc1cccs1)NC[C@H]1O[C@@H](n2cc(Cc3ccc(C4CC4)cc3)c3c(Cl)cccc32)[C@H](O)[C@@H](O)[C@@H]1O	
552	O=C(NC[C@H]1O[C@@H](n2cc(Cc3ccc(C4CC4)cc3)c3c(Cl)cccc32)[C@H](O)[C@@H](O)[C@@H]1O)C1CC1	
184	O=C(NC[C@H]1O[C@@H](n2cc(Cc3ccc(C4CC4)cc3)c3c(Cl)cccc32)[C@H](O)[C@@H](O)[C@@H]1O)C(Cl)Cl	
249	CCOC(=O)C(=O)NC[C@H]1O[C@@H](n2cc(Cc3ccc(C4CC4)cc3)c3c(Cl)cccc32)[C@H](O)[C@@H](O)[C@@H]1O	
716	CCNC(=S)NC[C@H]1O[C@@H](n2cc(Cc3ccc(C4CC4)cc3)c3c(Cl)cccc32)[C@H](O)[C@@H](O)[C@@H]1O	
284	COC(=O)C(=O)NC[C@H]1O[C@@H](n2cc(Cc3ccc(C4CC4)cc3)c3c(Cl)cccc32)[C@H](O)[C@@H](O)[C@@H]1O	Ratio EC50 (CHO-K1): 20

Continued, molecule first:

SMILES	EC50 [1] [nM]	also measured
O=C(O)c1cn(C[C@H]2O[C@@H](n3cc(Cc4ccc(C5CC5)cc4)c4c(Cl)cccc43)[C@H](O)[C@@H](O)[C@@H]2O)nn1	2720	
COC(=O)c1cn(C[C@H]2O[C@@H](n3cc(Cc4ccc(C5CC5)cc4)c4c(Cl)cccc43)[C@H](O)[C@@H](O)[C@@H]2O)nn1	119	
CCOC(=O)CCC(=O)NC[C@H]1O[C@@H](n2cc(Cc3ccc(C4CC4)cc3)c3c(Cl)cccc32)[C@H](O)[C@@H](O)[C@@H]1O	588	
O=C(NCCCCl)NC[C@H]1O[C@@H](n2cc(Cc3ccc(C4CC4)cc3)c3c(Cl)cccc32)[C@H](O)[C@@H](O)[C@@H]1O	151	Ratio EC50 (CHO-K1): 6
CCOC(=O)CNC(=S)NC[C@H]1O[C@@H](n2cc(Cc3ccc(C4CC4)cc3)c3c(Cl)cccc32)[C@H](O)[C@@H](O)[C@@H]1O	286	Ratio EC50 (CHO-K1): 3
O=C(CSc1ccccc1)NC[C@H]1O[C@@H](n2cc(Cc3ccc(C4CC4)cc3)c3c(Cl)cccc32)[C@H](O)[C@@H](O)[C@@H]1O	2090	
OC[C@H]1O[C@@H](n2cc(Cc3ccc(C4CC4)cc3)c3c(Cl)cccc32)[C@H](O)[C@@H](O)[C@@H]1O	14	Ratio EC50 (CHO-K1): 2
CCOC(=O)CC(=O)NC[C@H]1O[C@@H](n2cc(Cc3ccc(C4CC4)cc3)c3c(Cl)cccc32)[C@H](O)[C@@H](O)[C@@H]1O	118	
O[C@@H]1[C@@H](O)[C@H](n2cc(Cc3ccc(C4CC4)cc3)c3c(Cl)cccc32)OC[C@H]1O		Ratio EC50 (CHO-K1): 2
COCCCNC(=S)NC[C@H]1O[C@@H](n2cc(Cc3ccc(C4CC4)cc3)c3c(Cl)cccc32)[C@H](O)[C@@H](O)[C@@H]1O	586	
NC[C@H]1O[C@@H](n2cc(Cc3ccc(C4CC4)cc3)c3c(Cl)cccc32)[C@H](O)[C@@H](O)[C@@H]1O	237	Ratio EC50 (CHO-K1): 9
CCOC(=O)NC(=O)NC[C@H]1O[C@@H](n2cc(Cc3ccc(C4CC4)cc3)c3c(Cl)cccc32)[C@H](O)[C@@H](O)[C@@H]1O	1000	
COC(=O)CC(=O)NC[C@H]1O[C@@H](n2cc(Cc3ccc(C4CC4)cc3)c3c(Cl)cccc32)[C@H](O)[C@@H](O)[C@@H]1O	39	Activity (Rattus norvegicus [14]): inactive
O[C@@H]1[C@@H](O)[C@H](n2cc(Cc3ccc(C4CC4)cc3)c3c(Cl)cccc32)O[C@H](Cn2cc(C3CCCC3)nn2)[C@H]1O	1590	
COc1ccc(NC(=S)NC[C@H]2O[C@@H](n3cc(Cc4ccc(C5CC5)cc4)c4c(Cl)cccc43)[C@H](O)[C@@H](O)[C@@H]2O)cc1	485	
CCOC(=O)CNC(=O)NC[C@H]1O[C@@H](n2cc(Cc3ccc(C4CC4)cc3)c3c(Cl)cccc32)[C@H](O)[C@@H](O)[C@@H]1O	515	
CCOc1cn(C[C@H]2O[C@@H](n3cc(Cc4ccc(C5CC5)cc4)c4c(Cl)cccc43)[C@H](O)[C@@H](O)[C@@H]2O)nn1	655	
O[C@@H]1[C@@H](O)[C@H](n2cc(Cc3ccc(C4CC4)cc3)c3c(Cl)cccc32)O[C@H](Cn2cc(C3CC3)nn2)[C@H]1O	359	
